In article PMC10175255, “The cell wall lipoprotein CD1687 acts as a DNA binding protein during deoxycholate-induced biofilm formation in Clostridioides difficile” (NPJ Biofilms and Microbiomes, 2023):

Biological target: T1, CD1687 (Clostridioides difficile, UniProt Q186P2)
T1 construct: gene CD630_16870; signal peptide removed, hexahistidine tag kept, expressed in E. coli Bli5 from a pET20-derived plasmid, Ni-NTA purified
Test: surface plasmon resonance (Biacore T200), His-tagged protein captured on Ni-NTA chip
Format: binding

T1 sequence (Q186P2 entry or part of it): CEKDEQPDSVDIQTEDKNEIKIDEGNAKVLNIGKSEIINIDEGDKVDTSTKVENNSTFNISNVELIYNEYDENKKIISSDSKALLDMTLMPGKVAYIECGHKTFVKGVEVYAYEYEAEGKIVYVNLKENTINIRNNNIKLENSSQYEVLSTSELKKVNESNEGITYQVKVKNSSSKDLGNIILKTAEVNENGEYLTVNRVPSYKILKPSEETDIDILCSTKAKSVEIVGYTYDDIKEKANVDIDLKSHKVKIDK

**Q.** How did the Kd turn out when `C[C@H](CCC(=O)O)[C@H]1CC[C@H]2[C@@H]3CC[C@@H]4C[C@H](O)CC[C@]4(C)[C@H]3C[C@H](O)[C@]12C` [deoxycholate] was run?
**A.** 1650 ± 580 µM
